Laboratory results: US10350240B2, “Lanthanum carbonate hydroxide, lanthanum oxycarbonate and methods of their manufacture and use” (Spectrum Pharmaceuticals, Inc., priority 2010, dated 2019)

Key:
BET surface area = type: physicochemical; settings: for Surface Area, BET Surface area (m^2/g): nitrogen adsorbate; for BET surface area of the material tested: material tested in FIG. 10
From the text: (§1) By “relatively greater” it is meant that if the processes of the '782 patent and those of the present invention were run under generally identical conditions but with, for example, ammonium carbonate or bicarbonate used instead of sodium carbonate, the surface area, as measured by BET or otherwise, of the LCH or lanthanum oxycarbonates of the present invention would be even higher than that resulting from the practice of the '782 patent. The ammonium carbonate process of the present invention should yield BET surface areas (SA) in the 1 to 100 m^2/g range for LCH. […] To this end, as used herein “relatively greater BET surface area” refers to the greater BET surface area of the LDOC compound of the present invention when compared to the respective compound in U.S. Pat. No. 7,588,782 when made using similar ingredients, and under similar conditions but using the process described in that patent. As noted above, both processes are capable of producing very fine particles/high surface area. Again without wishing to be bound by any particular theory of operation, it may be that the greater porosity of the materials resulting from the present invention may effectively increase the overall surface area (or more reactive surfaces) allowing for, inter alia, improved binding kinetics. This is predicated on the porosity of individual or primary particles, not aggregates. Thus, it is believed that the primary particles of the invention provide relatively greater porosity than would be measured for particles made in accordance with the '782 patent. […] Furthermore, “porosity” as used herein means cumulative adsorption pore volume determined using a static pressure surface area analyzer with nitrogen as the adsorbate and calculating the pore size by The Barrett, Joyner, and Halenda (BJH) method (Barrett E. P., Loyner L. G. and Halenda P. P., The determination of pore volume and area distributions in porous substances. I. Computations from nitrogen isotherms, J. Am. Chem. Soc. 73 (1951) pp. 373-380).
As contemplated herein, BET surface area of the lanthanum compounds disclosed herein may be determined as provided in U.S. Pat. No. 7,588,782.

[1] = Porosity (BJH pore volume, pore size; nitrogen adsorption, Micromeritics TriStar 3000); type: physicochemical; settings: for Pore Size, Adsorption pore diameter (nm): BJH adsorption; for Pore volume, Adsorption (cumulative) (cm^3/g) / Surface Area, Adsorption (cumulative) (m^2/g): BJH adsorption cumulative; for Pore Size, Desorption pore diameter (nm): BJH desorption; for Pore volume, Desorption (cumulative) (cm^3/g) / Surface Area, Desorption (cumulative) (m^2/g): BJH desorption cumulative; for Pore volume, Total-<6.4182 nM (cm^3/g): pores <6.4182 nM
From the text: as §1
“Pore volume” as used herein refers to the cumulative adsorption pore volume. In one embodiment, the cumulative adsorption pore volume of the LDOC of the present invention is at least 0.015 cm^3/g. In another embodiment, it is at least 0.020 cm^3/g.
The porosity of the LDOC compound referred to herein as RZB-014 was analyzed and compared to that of the LDH and LDOC compounds of the '782 patent discussed above on a Micromeritics TriStar 3000 static pressure surface area analyzer using nitrogen as the adsorbate. The Barrett, Joyner, and Halenda (BJH) method was used to calculate pore size. This method uses the Kelvin model of pore filling and applies only to the mesopore (internal width between approximately 2 and 50 nm) and small macropore size range (internal width between 50 nm and approximately 300 nm).

[2] = at 10 minutes, pH 3, FIG. 20 of the '782 patent; cited from earlier work
Bulk density = type: physicochemical; settings: Renazorb-013 (LCH), second block
Description: Bulk density in accordance with the invention can be determined by standard methods.
Graduated Cylinder Tare Weight was determined to be 225 g. 75 grams of sample was sieved into the graduated cylinder. The Gross Weight was determined to be 299.4 g. The volume of this sample was measured to be 141 mL. Thus, the Bulk Density of the powder is: Bulk Density (g/cc)=(299.4−225)/141=74.4/141=0.5277 g/cc Rounding this value to two decimal places gives a final reported value of 0.53 g/cc. 9.2 RSD=(R1−R2)×100/R1 where: RSD=Relative Standard Deviation (%) R1 & R2=Result of individual repeat (g/cc) 9.3 SR=R×100/V where: SR=Standard Recovery (%) R=Result for Reference Standard (g/cc) V=Historical average for standard (g/cc)

[3] = Phosphate binding kinetics at constant pH, ICP-OES (FIG. 10); settings: for phosphate binding at a pH of 3 or below: comparison of both LDOC materials; for amount of phosphate bound in 60 minutes: pH of about 6.5, 60 minutes, FIG. 10
From the text: FIG. 10 provides a graphical representation of the binding kinetics of LCH and a lanthanum oxycarbonate in accordance with the '782 patent (RZB-011, RZB-012), and LCH/La2O2CO3 produced in accordance with the present invention (RZB-013 and RZB-014) at 10, 20, 30, 40, […]
It is preferred that the amount of polymorph 037-0804 exceeds that of any other polymorph by weight. In one embodiment, the amount of polymorph 037-0804 is more than 50% of all polymorphs present and, in another embodiment, at least 90% of the polymorphs present of LDOC is La2O2CO3. In another embodiment, polymorph 037-0804 (La2O2CO3) is present in an amount of at least 95% by weight relative to other polymorphs and in still another embodiment, at least 99% by weight. It has also been determined that the phosphate binding kinetic of LDOC resulting from the present invention versus LDOC resulting from the process of the '782 patent are different as well. […] In one embodiment, therefore, the lanthanum oxycarbonate and, in another embodiment, the LDOC of the inventions have a binding kinetic at pH 6.5 at 60 minutes, of at least 150 mg PO4 per gram of lanthanum oxycarbonate/LDOC. In another embodiment, the lanthanum oxycarbonate and LDOC of the invention have a binding kinetic of at least about 180 mg PO4 per gram compound and in still a further embodiment, at least about 200 mg PO4 per gram compound. The BET surface area of the material tested was 6-7 m^2/g for RZB012 (lanthanum oxycarbonate in accordance with the '782 patent) and was about 33.9 for La2O2CO3 in accordance with the invention. Moreover, it is believed that the porosity, bulk density and flow characteristics of LDOC made in accordance with the present invention surpassed those made in accordance with the teachings of the '782 patent.
Phosphate binding kinetics and binding capacity as illustrated in FIG. 10 as described herein (particularly with regard to RZB-012) can be measured as follows:
Stock phosphate solution (0.00527 mol PO43—per Liter—500 mg PO43—per Liter)
3. Using a graduated cylinder measure out 1.0 L of the stock phosphate solution
4. Add the phosphate solution to a 1.5 L Pyrex beaker. The beaker should be sufficiently large to contain the phosphate solution and allow for a 30% volume increase
5. Run at ambient […] or 37° C. as indicated in the analytical request. If 37° C. is requested place the 1.5 L beaker containing the 1.0 L of test solution on a temperature controlled hot plate. Set temperature to 37° C. […] 6. Stir the solution constantly using an electric stirrer equipped with an impeller. Stir rate should be […] (verify with tachometer). 7. Using a 10 ml syringe remove 5 mls of solution and dispense it into a labeled sample tube. This is the T=0 sample 8. […]

Compound: O=C([O-])[O-].[La+3].[La+3].[O-2].[O-2] [RZB-14 (264314)]
- Surface Area, BET Surface area (m^2/g) (BET surface area): 32.0039 m^2/g
- Pore Size, Average pore width (nm) [1]: 3.404 nm
- Pore Size, Adsorption pore diameter (nm) [1]: 5.7595 nm
- Pore volume, Adsorption (cumulative) (cm^3/g) [1]: 0.0499 cm^3/g
- Surface Area, Adsorption (cumulative) (m^2/g) [1]: 34.6533 m^2/g
- Pore Size, Desorption pore diameter (nm) [1]: 6.0183 nm
- Pore volume, Desorption (cumulative) (cm^3/g) [1]: 0.05346 cm^3/g
- Surface Area, Desorption (cumulative) (m^2/g) [1]: 35.5324 m^2/g
- Pore volume, Total-<6.4182 nM (cm^3/g) [1]: 0.02724 cm^3/g

Compound: lanthanum tricarbonate tetrahydrate
- percent of the available phosphate bound [2]: about 40%

Compound: O=C([O-])[O-].[La+3].[OH-] [Batch 101008, lanthanum carbonate hydroxide]
- Surface Area (BET surface area; Renazorb-013 (LCH), second block of experiments): 14.3 m^2/g
- Bulk Density (Bulk density): 0.15 g/cc

Compound: O=C([O-])[O-].[La+3].[La+3].[O-2].[O-2] [RZB-014, Lanthanum dioxycarbonate]
- phosphate binding at a pH of 3 or below [3]: about the same
- amount of phosphate bound in 60 minutes [3]: approximately 240 mg PO4 bound per gram of compound
- BET surface area of the material tested (BET surface area): about 33.9 m^2/g
- pore diameter comparison [1]: not much difference in the values of pore diameter
- pore volume compared with RZB-12 and RZB-11 ([1]; both lots of RZB-14): much higher pore volumes than RZB-12 and slightly bigger pore volume than RZB-11
- surface area compared with RZB-11 & 12 ([1]; two lots of RZB-14): greater

Compound: lanthanum oxycarbonate [RZB-012, reference compound]
- phosphate binding at a pH of 3 or below [3]: about the same
- amount of phosphate bound in 60 minutes [3]: about 118 mg PO4 bound per gram of compound
- BET surface area of the material tested (BET surface area): 6-7 m^2/g
- pore diameter comparison [1]: not much difference in the values of pore diameter

Compound: O=C([O-])[O-].[La+3].[La+3].[O-2].[O-2] [RZB-14 (264317)]
- Surface Area, BET Surface area (m^2/g) (BET surface area): 25.3032 m^2/g
- Pore Size, Average pore width (nm) [1]: 4.699 nm
- Pore Size, Adsorption pore diameter (nm) [1]: 5.5584 nm
- Pore volume, Adsorption (cumulative) (cm^3/g) [1]: 0.03991 cm^3/g
- Surface Area, Adsorption (cumulative) (m^2/g) [1]: 28.7342 m^2/g
- Pore Size, Desorption pore diameter (nm) [1]: 4.8008 nm
- Pore volume, Desorption (cumulative) (cm^3/g) [1]: 0.04068 cm^3/g
- Surface Area, Desorption (cumulative) (m^2/g) [1]: 33.8946 m^2/g
- Pore volume, Total-<6.4182 nM (cm^3/g) [1]: 0.02973 cm^3/g

Compound: O=C([O-])[O-].[La+3].[OH-] [RZB-011, lanthanum carbonate hydroxide]
- pore diameter comparison [1]: not much difference in the values of pore diameter
